Data on two compounds can be found in patent US6720142B1, “Method of determining evolutionary potential of mutant resistance genes and use thereof to screen for drug efficacy” (priority 1999, dated 2004).

The subject of test [1] is E. coli DH5α-E containing multiply mutated ampC. Briefly: MIC of population of E. coli host cells containing multiply mutated (DNA-shuffled) ampC. Format: cell-based. Particulars: Escherichia coli; lowest drug concentration that completely inhibited growth; overnight at 37° C., MH-I broth, 48-well plates, shuffled ampC library in DH5α-E. Here is the method: E. coli host cells prepared according to Example 4 were diluted into 100 ml MuellerHinton-IPTG (MH-T) broth. Duplicate samples of 10^0, 10^1, and 10^2 dilutions were spread onto L(tet) plates to estimate total transformants, and duplicate 10^0 and 10^1 samples were spread onto MH-I(ampicillin) plates to estimate the number of Amp^R transformants. 10 mg ampicillin was added to each culture using 1 ml of a 10 mg/ml ampicillin solution. The culture was allowed to stand overnight at 37° C. without shaking.
Next, the minimum inhibitory concentration of a number of drug was determined. An estimate of viable cells was calculated by assuming that an A600 of 1.0 is equivalent to 1.9×10^8 per ml for DH5α-E cells. A sample of the overnight culture was diluted into 70 ml of MH-I so that the number of cells per ml 10^5 per ml. The resulting suspension was used to determine MIC in 48-well microtiter plates.
(§1) Serial dilutions were prepared by first determining the volume of drug solution to be added to the first well in each row to achieve the desired concentration of drug in a total volume of 1 ml. The MIC was determined for the following drugs: ampicillin, pipericillin, temocillin, cephalothin, cefuroxime, cefotaxime, ceftazidime, cefepime, imipenem, meropenem, and aztreonam. To the first well in each row 1 ml of the diluted cell suspension was added, and to all remaining wells per row 0.5 ml of the diluted cell suspension was added. For each row, the predetermined volume of a drug solution was added to the first well per row, mixed well, and then 0.5 ml of the mixed solution was transferred to the next well, and so on until the serial dilutions were completed. From the last well in each row, 0.5 ml was removed so that all well contained 0.5 ml of the drug-containing culture. Plates were sealed with BreatheEasy film (Diversified Biotech, Boston, Mass.) and maintained overnight at 37° C. with shaking. […] The MICs, in μg/ml, for each of the above-identified drugs was as follows: ampicillin, >1024; pipericillin, >1024; temocillin, 32: cephalothin, 1024; cefuroxime, 512; cefotaxime, 8; ceftazidime, 64; cefepime, 1; imipenem, 0.25; meropenem, 0.03125; and aztreonam, 16.

The test system of test [2] is host cells carrying pAmpC0-305 (AmpC T121 to S). In words: MIC test, single-mutation plasmid pAmpC0-305. Format: cell-based, E. coli. Particulars: pAmpC0-305; A663 to G; T121 to S. Here is the method:
(§2) Basically, a MIC determination is carried out by preparing serial dilutions of drugs in a micro-well plate and measuring host cell growth within those wells. The MIC for a particular set of host cells containing a mutant resistance gene is determined by examining the wells to locate the lowest concentration of drug which inhibited cell growth. This is capable of discriminating generally between those host cells containing mutant resistance genes conferring different degrees of resistance against the particular drug.
as §1
(§3) To determine the phenotypic effects of each of the amino acid substitutions, the A907C, A587G, A663G, T869G, and A884G mutations are being individually introduced into pAmpC0 by site-directed mutagenesis. It is expected that the A907C mutation will result in MICs that are identical to pAmpC13A. The A587G, A663G, and As84G mutations will also be introduced individually into AmpC13 to determine whether the combination of any of those mutations with A907C will result in increased resistance levels.
(§4) MICs of three of the plasmids containing the wildtype AmpC gene into which the above mutations have been introduced have been determined, as shown in Table 2 below.

Test [3] deals with E. coli JM109 carrying pAmpC0 (wildtype E. coli K12 ampC gene). Briefly: MIC test, plasmid pAmpC0 (wildtype ampC gene). Type of test: cell-based. Particulars: for MIC: pAmpC0 (wildtype ampC); for resistance conferred by plasmid pAmpC0: wildtype ampC gene, Table 1 boxed cells. Here is the method:
as §2
All experiments utilizing ampicillin resistance will be directed toward the cloned and regulated ampC gene (or mutant ampC gene) in such a way that the regulation, i.e., the amount of enzyme produced per cell, will be held constant throughout the experiments and all of the “improvement” in resistance will come from improvement in β-lactamase activity.
as §1, with “16. […]” for “16.”

Test [4] relates to host cells carrying PAmpC0-308 (AmpC N295 to S). Briefly: MIC test, single-mutation plasmid PAmpC0-308. Format: cell-based, E. coli. Particulars: A644 to G.
The test system of test [5] is E. coli carrying pAmpC13A (mutant ampC, S303R). Briefly: MIC test, mutant plasmid pAmpC13A. Format: cell-based. Here is the method: (§5) Serial dilutions were prepared by first determining the volume of drug solution to be added to the first well in each row to achieve the desired concentration of drug in a total volume of 1 ml. The MIC was determined for the following drugs: ampicillin, pipericillin, temocillin, cephalothin, cefuroxime, cefotaxime, ceftazidime, cefepime, imipenem, meropenem, and aztreonam. To the first well in each row 1 ml of the diluted cell suspension was added, and to all remaining wells per row 0.5 ml of the diluted cell suspension was added. For each row, the predetermined volume of a drug solution was added to the first well per row, mixed well, and then 0.5 ml of the mixed solution was transferred to the next well, and so on until the serial dilutions were completed. From the last well in each row, 0.5 ml was removed so that all well contained 0.5 ml of the drug-containing culture. Plates were sealed with BreatheEasy film (Diversified Biotech, Boston, Mass.) and maintained overnight at 37° C. with shaking.
(§6) Plasmids were prepared from those isolates and were transformed into E. coli strain JM109.

Test [6] relates to E. coli JM109 carrying the plasmid vector pACSE without an ampC gene. Briefly: MIC test, plasmid vector pACSE without an ampC gene. Format: cell-based. Particulars: pACSE (vector, no ampC). Here is the method:
as §2, §1
Plasmids were prepared from those isolates and were transformed into E. coli strain JM109. MICs conferred by each of those plasmids was determined as in Example 5.
as §4

Test [7] has as its system E. coli carrying pAmpC21B (mutant ampC). Briefly: MIC test, mutant plasmid pAmpC21B. Format: cell-based. Here is the method:
as §5, §6

In test [8] the test system is E. coli carrying pAmpC41A (mutant ampC). Briefly: MIC test, mutant plasmid pAmpC41A. Type of test: cell-based. Here is the method: as §5, with “shaking. […]” for “shaking.”
Plasmids were prepared from those isolates and were transformed into E. coli strain JM109. MICs conferred by each of those plasmids was determined as in Example 5. […]

The test system of test [9] is host cells carrying PAmpC0-307 (AmpC L290 to R). Briefly: MIC test, single-mutation plasmid PAmpC0-307. Format: cell-based, E. coli. Particulars: PAmpC0-307; T869 to G; L290 to R. Here is the method: as §2, §1, §3, §4

Structures are written as SMILES. Converted amounts (≈) assume the structure as drawn.

Regarding `CO/N=C(\C(=O)N[C@@H]1C(=O)N2C(C(=O)[O-])=C(C[N+]3(C)CCCC3)CS[C@H]12)c1csc(N)n1` [Cefepime, cefepime], the MIC (usually the least concentration at which growth counts as inhibited) turned out to be 1 µg/mL in [1]; 0.0625 µg/mL in [2]; 0.0625 µg/mL (≈ 0.13 µM) in test [3]; 0.0625 µg/mL (≈ 0.13 µM) in [4]; 0.0312 µg/mL (≈ 0.065 µM) in [6]; 0.0625 µg/mL in test [9]. The “resistance conferred by plasmid pAmpC0” value in [3] is given as “not”. In [5], the “improved resistance conferred by pAmpC13A” value is “improved resistance”. Moreover, in test [7] (pAmpC21B, second line), the increase in resistance turned out to be 2 fold. In test [8] (pAmpC41A, first line), this compound showed an improvement in resistance of 128 fold.

Regarding `CCN1CCN(C(=O)N[C@@H](C(=O)N[C@@H]2C(=O)N3[C@@H]2SC(C)(C)[C@@H]3C(=O)O)c2ccccc2)C(=O)C1=O` [Pipericillin, pipericillin], the MIC in test [2] was 16 µg/mL; in test [3], 16 µg/mL (≈ 30.9 µM); in test [4], 4 µg/mL (≈ 7.73 µM); in test [6], 4 µg/mL (≈ 7.73 µM); in test [9], 16 µg/mL. The “resistance conferred by plasmid pAmpC0” value in [3] is “not”. Also, the “clinical resistance conferred by pAmpC13A” value in test [5] was “clinical resistance”. Further, the “improved resistance conferred by pAmpC13A” value in [5] was “improved resistance”. The “clinical resistance conferred by pAmpC21B” value in test [7] (after two cycles of mutagenesis and selection) is listed as “clinical resistance”. For the same compound, the “improvement in resistance conferred by pAmpC41A” value in test [8] (after subsequent rounds of mutagenesis and selection, relative to pAmpC13A) is “slight improvement in resistance”.
